Measured values as given in article PMC8699473, “An Easily Expandable Multi-Drug LC-MS Assay for the Simultaneous Quantification of 57 Oral Antitumor Drugs in Human Plasma” (Cancers, 2021).

How the values were obtained:
[1] = Freeze-thaw stability in spiked pooled human plasma; type: physicochemical
[2] = Autosampler stability of ready for injection samples; type: physicochemical, human
[3] = parameters: method as in supplement references [1-55] as printed per drug; conditions: minimum steady-state blood plasma concentration after multiple dose administration; ref supplement references [1-55] per drug; cited from earlier work

SMILES | Freeze-Thaw Accuracy [%] ([1]; validation standard 2xLLOV) | Freeze-Thaw Accuracy [%] ([1]; validation standard LLOV) | Freeze-Thaw Accuracy [%] ([1]; validation standard MOV) | Freeze-Thaw Accuracy [%] ([1]; validation standard ULOV) | Autosampler (24h, 4°C) Accuracy [%] ([2]; validation standard 2xLLOV) | Autosampler (72h, 4°C) Accuracy [%] ([2]; validation standard 2xLLOV) | Autosampler (24h, 4°C) Accuracy [%] ([2]; validation standard LLOV) | Autosampler (72h, 4°C) Accuracy [%] ([2]; validation standard LLOV) | Autosampler (24h, 4°C) Accuracy [%] ([2]; validation standard MOV) | Autosampler (72h, 4°C) Accuracy [%] ([2]; validation standard MOV) | Autosampler (24h, 4°C) Accuracy [%] ([2]; validation standard ULOV) | Autosampler (72h, 4°C) Accuracy [%] ([2]; validation standard ULOV) | cmin [3] [ng/mL]
COc1cc2ncnc(Nc3ccc(F)c(Cl)c3)c2cc1OCCCN1CCOCC1 [Gefitinib] | 97.6 | 92.4 | 97.8 | 97.1 | 102.3 | 98.5 | 91.6 | 90.7 | 105.6 | 102.2 | 96.7 | 97.0 | 291
NC(=O)c1cccc2cn(-c3ccc([C@@H]4CCCNC4)cc3)nc12 [Niraparib] | 96.8 | 98.0 | 96.5 | 97.1 | 103.0 | 99.6 | 96.8 | 96.3 | 104.6 | 100.5 | 100.8 | 100.1 | 649
C=CC(=O)Nc1cc(Nc2nccc(-c3cn(C)c4ccccc34)n2)c(OC)cc1N(C)CCN(C)C [Osimertinib] | 93.7 | 95.6 | 96.2 | 92.7 | 104.2 | 99.1 | 90.3 | 91.2 | 103.8 | 100.3 | 98.4 | 99.1 | 166
Cc1cn(-c2cc(NC(=O)c3ccc(C)c(Nc4nccc(-c5cccnc5)n4)c3)cc(C(F)(F)F)c2)cn1 [Nilotinib] | 98.5 | 92.8 | 100.9 | 96.0 | 97.8 | 101.2 | 88.1 | 92.6 | 102.7 | 104.0 | 100.3 | 102.0 | 1165
CN(C)C/C=C/C(=O)Nc1cc2c(Nc3ccc(F)c(Cl)c3)ncnc2cc1O[C@H]1CCOC1 [Afatinib] | 100.0 | 93.5 | 96.1 | 95.0 | 103.2 | 99.3 | 91.7 | 83.0 | 102.6 | 103.4 | 98.7 | 99.3 | 14.4
COc1cc(N2CCC(N3CCN(C)CC3)CC2)ccc1Nc1ncc(Cl)c(Nc2ccccc2P(C)(C)=O)n1 [Brigatinib] | 98.7 | 111.4 | 95.5 | 97.9 | 96.4 | 91.9 | 90.7 | 85.3 | 104.4 | 95.5 | 96.1 | 96.6 | 520
COC(=O)c1ccc2c(c1)NC(=O)/C2=C(\Nc1ccc(N(C)C(=O)CN2CCN(C)CC2)cc1)c1ccccc1 [Nintedanib] | 103.0 | 93.2 | 96.9 | 95.8 | 104.2 | 104.4 | 91.3 | 99.8 | 102.7 | 104.6 | 102.7 | 101.4 | 13.1
Cc1nc(Nc2ncc(C(=O)Nc3c(C)cccc3Cl)s2)cc(N2CCN(CCO)CC2)n1 [Dasatinib] | 99.1 | 108.8 | 99.1 | 102.2 | 102.9 | 106.3 | 116.5 | 114.9 | 102.8 | 99.0 | 102.6 | 101.0 | 2.61
Cc1cc(Nc2ncc(Cl)c(Nc3ccccc3S(=O)(=O)C(C)C)n2)c(OC(C)C)cc1C1CCNCC1 [Ceritinib] | 96.9 | 99.9 | 97.6 | 97.5 | 95.1 | 100.1 | 97.1 | 98.1 | 100.8 | 103.5 | 101.3 | 106.5 | 871
CNC(=O)c1ccc(N2C(=S)N(c3cnc(C#N)c(C(F)(F)F)c3)C(=O)C23CCC3)cc1F [Apalutamide] | 95.6 | 93.8 | 94.8 | 95.7 | 102.1 | 105.1 | 97.2 | 102.8 | 106.8 | 106.0 | 102.6 | 106.5 | 3700
Cc1ccc(Nc2nccc(N(C)c3ccc4c(C)n(C)nc4c3)n2)cc1S(N)(=O)=O [Pazopanib] | 103.5 | 102.7 | 103.9 | 100.5 | 103.7 | 99.4 | 101.3 | 99.0 | 101.7 | 97.9 | 99.8 | 99.0 | 24000
COc1cc2nccc(Oc3ccc(NC(=O)Nc4cc(C)on4)c(Cl)c3)c2cc1OC [Tivozanib] | 96.8 | 90.0 | 99.9 | 98.1 | 101.5 | 102.7 | 94.0 | 95.0 | 104.6 | 102.4 | 101.6 | 103.1 | 80
O=C(c1cc(Cc2n[nH]c(=O)c3ccccc23)ccc1F)N1CCN(C(=O)C2CC2)CC1 [Olaparib] | 99.5 | 113.4 | 96.6 | 100.5 | 103.8 | 100.5 | 111.6 | 111.2 | 100.5 | 98.0 | 103.8 | 100.5 | 1570
Nc1cccc2c1CN(C1CCC(=O)NC1=O)C2=O (stereo not drawn) [Lenalidomide] | 104.4 | 91.0 | 97.3 | 96.8 | 117.5 | 109.8 | 80.7 | 95.6 | 107.0 | 100.0 | 100.8 | 98.9 | 13
C[C@H]1Oc2cc(cnc2N)-c2c(nn(C)c2C#N)CN(C)C(=O)c2ccc(F)cc21 [Lorlatinib] | 95.0 | 96.0 | 95.2 | 97.6 | 101.6 | 99.0 | 96.7 | 94.8 | 102.0 | 100.8 | 99.7 | 99.2 | 150
